Converted amounts (≈) assume the structure as drawn.
Tests used:
Format in all cases: functional
Staphylococcus aureus [1] = assay: Antibacterial activity against Staphylococcus aureus assessed as inhibition of bacterial growth incubated for 24 hrs by microbroth two-fold dilution method
Streptococcus agalactiae [2] = assay: Antibacterial activity against Streptococcus agalactiae assessed as inhibition of bacterial growth incubated for 24 hrs by microbroth two-fold dilution method
Escherichia coli [3] = assay: Antibacterial activity against Escherichia coli assessed as inhibition of bacterial growth incubated for 24 hrs by microbroth two-fold dilution method
Staphylococcus aureus [4] = assay: Antibacterial activity against Staphylococcus aureus assessed as diameter of the inhibition circle at 1 mg/ml incubated for 48 hrs
Staphylococcus aureus [5] = assay: Antibacterial activity against Methicillin-resistant Staphylococcus aureus BNCC 337371 assessed as inhibition of bacterial growth incubated for 24 hrs by microbroth two-fold dilution method
Streptococcus agalactiae [6] = assay: Antibacterial activity against Streptococcus agalactiae assessed as bacterial growth by measuring optical density at 0.5 times MIC incubated for 12 hrs by real time growth curve analysis
Staphylococcus aureus [7] = assay: Antibacterial activity against Staphylococcus aureus assessed as bacterial growth by measuring optical density incubated for 12 hrs by real time growth curve analysis
Escherichia coli [8] = assay: Antibacterial activity against Escherichia coli assessed as bacterial growth by measuring optical density at 1 to 2 times MIC incubated for 12 hrs by real time growth curve analysis
Streptococcus agalactiae [9] = assay: Antibacterial activity against Streptococcus agalactiae assessed as bacterial growth by measuring optical density at 1 to 2 times MIC incubated for 12 hrs by real time growth curve analysis
Escherichia coli [10] = assay: Antibacterial activity against Escherichia coli assessed as bacterial growth by measuring optical density at 0.5 times MIC incubated for 12 hrs by real time growth curve analysis

Row | MIC (Staphylococcus aureus [1]) [µg/mL] | MIC (Streptococcus agalactiae [2]) [µg/mL] | MIC (Escherichia coli [3]) [µg/mL] | Structure (SMILES) | inhibition zone diameter (Staphylococcus aureus [4]) [mm] | MIC (Staphylococcus aureus [5]) [µg/mL] | OD (Streptococcus agalactiae [6]) | OD (Staphylococcus aureus [7]) | OD (Escherichia coli [8]) | OD (Streptococcus agalactiae [9]) | OD (Escherichia coli [10])
1 | 0.488 (≈ 0.814 µM) | 0.488 (≈ 0.814 µM) | 0.488 (≈ 0.814 µM) | C=C[C@]1(C)C[C@@H](OC(=O)CSc2nc(NCCO)cc(C(F)(F)F)n2)[C@]2(C)[C@H](C)CC[C@]3(CCC(=O)[C@H]32)[C@@H](C)[C@@H]1O | 29 | – | – | – | – | – | –
2 | 7.81 (≈ 11.3 µM) | 0.244 (≈ 0.352 µM) | > 15.6 | C=C[C@]1(C)C[C@@H](OC(=O)CSc2nc(N/N=C/c3ccc(OC)cc3O)c3ccsc3n2)[C@]2(C)[C@H](C)CC[C@]3(CCC(=O)[C@H]32)[C@@H](C)[C@@H]1O | 23 | – | – | – | – | – | –
3 | 0.244 (≈ 0.408 µM) | 0.244 (≈ 0.408 µM) | 3.91 (≈ 6.52 µM) | C=C[C@]1(C)C[C@@H](OC(=O)CSc2ncc(C)c(N3CCN(CC)CC3)n2)[C@]2(C)[C@H](C)CC[C@]3(CCC(=O)[C@H]32)[C@@H](C)[C@@H]1O | 26.6 | – | – | – | – | – | –
4 | 7.81 (≈ 11.4 µM) | 0.061 (≈ 0.0893 µM) | > 15.6 | C=C[C@]1(C)C[C@@H](OC(=O)CSc2nc(N/N=C/c3ccc(F)cc3F)c3ccsc3n2)[C@]2(C)[C@H](C)CC[C@]3(CCC(=O)[C@H]32)[C@@H](C)[C@@H]1O | 22.8 | – | – | – | – | – | –
5 | 0.122 (≈ 0.209 µM) | 0.122 (≈ 0.209 µM) | 1.95 (≈ 3.34 µM) | C=C[C@]1(C)C[C@@H](OC(=O)CSc2nccc(N3CCN(CC)CC3)n2)[C@]2(C)[C@H](C)CC[C@]3(CCC(=O)[C@H]32)[C@@H](C)[C@@H]1O | 28.6 | – | – | – | – | – | –
6 | 0.244 (≈ 0.447 µM) | 0.122 (≈ 0.224 µM) | 3.91 (≈ 7.16 µM) | C=C[C@]1(C)C[C@@H](OC(=O)CSc2ncc(C)c(NCCO)n2)[C@]2(C)[C@H](C)CC[C@]3(CCC(=O)[C@H]32)[C@@H](C)[C@@H]1O | 27.6 | – | – | – | – | – | –
7 | 0.977 (≈ 1.5 µM) | 0.488 (≈ 0.748 µM) | 7.81 (≈ 12 µM) | C=C[C@]1(C)C[C@@H](OC(=O)CSc2nc(N/N=C/c3cccs3)c3ccsc3n2)[C@]2(C)[C@H](C)CC[C@]3(CCC(=O)[C@H]32)[C@@H](C)[C@@H]1O | 22.8 | – | – | – | – | – | –
8 | 7.81 (≈ 11.7 µM) | 0.244 (≈ 0.367 µM) | 15.6 (≈ 23.5 µM) | C=C[C@]1(C)C[C@@H](OC(=O)CSc2nc(N/N=C/c3ccc(F)cc3)c3ccsc3n2)[C@]2(C)[C@H](C)CC[C@]3(CCC(=O)[C@H]32)[C@@H](C)[C@@H]1O | 20.2 | – | – | – | – | – | –
9 | 7.81 (≈ 10.9 µM) | 0.244 (≈ 0.341 µM) | > 15.6 | C=C[C@]1(C)C[C@@H](OC(=O)CSc2nc(N/N=C/c3ccc(C(F)(F)F)cc3)c3ccsc3n2)[C@]2(C)[C@H](C)CC[C@]3(CCC(=O)[C@H]32)[C@@H](C)[C@@H]1O | 22.2 | – | – | – | – | – | –
10 | 0.244 (≈ 0.447 µM) | 0.244 (≈ 0.447 µM) | 7.81 (≈ 14.3 µM) | C=C[C@]1(C)C[C@@H](OC(=O)CSc2nc(C)cc(NCCO)n2)[C@]2(C)[C@H](C)CC[C@]3(CCC(=O)[C@H]32)[C@@H](C)[C@@H]1O | 22.8 | – | – | – | – | – | –
11 | 0.122 (≈ 0.203 µM) | 0.488 (≈ 0.811 µM) | 0.977 (≈ 1.62 µM) | C=C[C@]1(C)C[C@@H](OC(=O)CSc2nc(NCCO)c3c(C)csc3n2)[C@]2(C)[C@H](C)CC[C@]3(CCC(=O)[C@H]32)[C@@H](C)[C@@H]1O | 25.9 | – | – | – | – | – | –
12 | 0.488 (≈ 0.769 µM) | 0.244 (≈ 0.384 µM) | 3.91 (≈ 6.15 µM) | C=C[C@]1(C)C[C@@H](OC(=O)CSc2nc(N3CCN(CC)CC3)c3ccccc3n2)[C@]2(C)[C@H](C)CC[C@]3(CCC(=O)[C@H]32)[C@@H](C)[C@@H]1O | 22.1 | – | – | – | – | – | –
13 | 15.6 (≈ 25 µM) | 7.81 (≈ 12.5 µM) | > 15.6 | C=C[C@]1(C)C[C@@H](OC(=O)CSc2nc(N3CCC(C)CC3)c3ccsc3n2)[C@]2(C)[C@H](C)CC[C@]3(CCC(=O)[C@H]32)[C@@H](C)[C@@H]1O | 10.9 | – | – | – | – | – | –
14 | 3.91 (≈ 5.27 µM) | 1.95 (≈ 2.63 µM) | > 15.6 | C=C[C@]1(C)C[C@@H](OC(=O)CSc2nc(N/N=C/c3ccc(O)c(Br)c3)c3ccsc3n2)[C@]2(C)[C@H](C)CC[C@]3(CCC(=O)[C@H]32)[C@@H](C)[C@@H]1O | 21 | – | – | – | – | – | –
15 | 0.122 (≈ 0.199 µM) | 0.061 (≈ 0.0994 µM) | 1.95 (≈ 3.18 µM) | C=C[C@]1(C)C[C@@H](OC(=O)CSc2nc(N3CCOCC3)c3ccsc3n2)[C@]2(C)[C@H](C)CC[C@]3(CCC(=O)[C@H]32)[C@@H](C)[C@@H]1O | 21.6 | – | – | – | – | – | –

Row | Structure (SMILES) | MIC (Staphylococcus aureus [1]) [µg/mL] | MIC (Streptococcus agalactiae [2]) [µg/mL] | MIC (Escherichia coli [3]) [µg/mL] | inhibition zone diameter (Staphylococcus aureus [4]) [mm] | MIC (Staphylococcus aureus [5]) [µg/mL] | OD (Streptococcus agalactiae [6]) | OD (Staphylococcus aureus [7]) | OD (Escherichia coli [8]) | OD (Streptococcus agalactiae [9]) | OD (Escherichia coli [10])
16 | C=C[C@]1(C)C[C@@H](OC(=O)CSc2nc(NCCO)c3ccccc3n2)[C@]2(C)[C@H](C)CC[C@]3(CCC(=O)[C@H]32)[C@@H](C)[C@@H]1O | 0.0153 (≈ 0.0263 µM) | 0.0153 (≈ 0.0263 µM) | 0.03 (≈ 0.0516 µM) | 30.5 | 0.0305 (≈ 0.0524 µM) | <0.3 | <0.3 | 0.1 | 0.1 | <0.3
